Source: patent publication US9125898B2, “Acetam derivatives for pain relief” (NEUROTUNE AG, priority 2008, dated 2015)
“Also recorded” adds a separate entry of the source.

Columns and labels:
Assay type in all cases: in vivo
[1] = tested on: chronic constriction injury induced hyperalgesia in the rat; test: Chronic constriction injury induced hyperalgesia in the rat (paw-pressure test); details: for Paw pressure, pre-test before all treatments: baseline, drug 100 mg/kg p.o.; for Paw pressure, 5 day 30 min / Paw pressure, 10 day 30 min / Paw pressure, 14 day 30 min / Paw pressure, 14 day 4 h / Paw pressure, 14 day 8 h / Paw pressure, 15 day 24 h / Paw pressure, 18 day 3 days: 100 mg/kg p.o. once a day for 14 days
Protocol: In the repeated administration protocol, NT-13317 was orally administered at 100 mg/kg in 1% CMC once a day for 14 days starting from the day of sciatic nerve ligation.
Peripheral rat mononeuropathy (Chronic constriction injury): Neuropathy was induced according to the procedure described by Bennett and Xie (Bennett G J, Xie Y K. A peripheral mononeuropathy in rat that produces disorders of pain sensation like those seen in man. Pain 1988; 33: 87-107).
Briefly, rats were anaesthetized with chloral hydrate 400 mg/kg intraperitoneally (i.p.); under aseptic conditions, the right common sciatic nerve was exposed at the level of the middle thigh by blunt dissection. Proximal to the trifurcation, the nerve was carefully freed from the surrounding connective tissue and four chromic cat gut ligatures (4-0, Ethicon, Norderstedt, Germany) were tied loosely around it with about 1 mm spacing. After haemostasis was confirmed, the incision was closed in layers. Then animals were allowed to recover from anaesthesia and surgery and were kept one per cage with free access to water and standard laboratory chow.
Statistical analysis: All experimental results are given as the mean±S.E.M. An analysis of variance, ANOVA, followed by Fisher's protected least significant difference procedure for post hoc comparison, were used to verify significance between two means of behavioural results. Data were analyzed with the StatView software for the Macintosh (1992). P values≦0.05 were considered significant.
Data of mechanical threshold (PWT) were converted to a percentage of the maximal possible effect (% MPE), according to Veneroni, O. et al. as follows: %MPE=(left dose PWT−left pre-dose control PWT)/(left naïve PWT−left pre-dose PWT)*100
The obtained % MPE were employed for ED50 calculation (obtained by Grafit v. 5.0), defined as the dose producing 50% reversal of mechanical allodynia.

[2] = tested on: oxaliplatin induced hyperalgesia in the rat; test: Oxaliplatin induced hyperalgesia in the rat paw-pressure test; details: for Paw pressure, pre-test before all treatments: baseline, drug 100 mg/kg p.o.; for Paw pressure, 1a week - 30 min / Paw pressure, 2a week - 30 min / Paw pressure, 3a week - 30 min / Paw pressure, 3a week - 4 h / Paw pressure, 3a week - 8 h / Paw pressure, 3a week - 24 h: drug 100 mg/kg p.o. once daily
Protocol: Drugs: The following substance was used: NT-13317 (batch No. RR0011-184A1 supplied by Brane Discovery Srl, Gerenzano Italy). NT-13317 was dissolved in DMSO 20%, 10% glucose and administered at the dose of 10, 30 and 100 mg/kg p.o.
Gabapentin (Sigma) was dissolved in 1% CMC (carboxymethylcellulose-Sigma) and orally administered at 100 mg/kg, and dissolved in saline and i.v. administered at 3 mg/kg.
Oxaliplatin model: A peripheral neuropathy was induced in adult rats, by administration of oxaliplatin (Tocris), at 2.4 mg/kg i.p. in saline once a day on days 1, 2, 3, 4, 5, 8, 9, 10, 11, 12, 15, 16, 17, 18, 19 (cumulative dose 36 mg/kg) according to [1].
In the first experiment NT-13317 and gabapentin were given chronically at the dose 100 mg/kg po starting 3 days before oxaliplatin and every day for 5 days/week for 3 weeks.
A dose-response experiment was then performed with NT-13317 (10, 30 and 100 mg/kg po) using the same treatment schedule.
Paw pressure test: Paw mechanical sensitivity was determined using a Randall & Selitto apparatus exerting a force that increases at constant rate (32 g/s). The stimulus at which rats withdrawn the paw was evaluated before and at different times after treatment. Results represent the mean of mechanical thresholds expressed as grams. To avoid any possible damage to the animal paw the maximum applied force was fixed at 240 g.
Statistical analysis: All experimental results are given as the mean±S.E.M. An analysis of variance, ANOVA, followed by Fisher's protected least significant difference procedure for post hoc comparison, were used to verify significance between two means of behavioral results. Data were analyzed with the StatView software for the Macintosh (1992). P values≦0.05 were considered significant.

[3] = tested on: MIA induced hyperalgesia in the rat; test: MIA induced hyperalgesia in the rat (paw-pressure test); details: for Mechanical threshold, before treatment, first day basal: baseline
From the text: Peripheral neuropathic induced in rats by administration into the left knee joint of MIA mimics chronic pain condition of osteoarthritis found in a large part of population over 60 years. The MIA test represents an useful and predictive model to study the anti-hyperalgesic potential of a drug in human osteoarthritic condition.
Drugs: The following substances were used: NT-11624 (batch n 66-MM3/16 supplied by Brane Discovery Sri, Gerenzano Italy) and tramadol (Tocris, UK). […] Control rats received saline only.
Sodium monoiodoacetate injection: A single intra-articular injection of sodium iodoacetate (MIA) was introduced into the right knee joint. […] Briefly, rats were deeply anaesthetized by ethylic ether. Following abolition of the hindpaw pinch withdrawal reflex, a 27-gauge needle was introduced into the joint cavity between the tibial plateau and femoral condyles. Once in place, 2 mg of MIA were solubilized in a volume of 25 ul and injected into the joint and the animal was allowed to recover for 14 days prior to pain assessment. It has consistently been shown that this dose of MIA causes osteoarthritic-like focal lesions in articular cartilage and subchondral bone thickening 14 days after administration Guingamp C. et al. Arthritis Rheum 40, 1670-9 (1997). Therefore this model can easily and quickly reproduce osteoarthritic-like lesions and functional impairment in rats, similar to that observed in human disease.
The administration of MIA induces in rats a hyperalgesic response to mechanical stimuli that reaches its statistical significance 5 days after administration and persists for 4 weeks (Fernihough et al. Pain 112:83-93 (2004)).
Control rats were treated with an equal volume of saline. […]
Starting from day 17 after MIA injection, paw pressure tests were performed.
Mechanical hyperalgesia: Paw mechanical sensitivity was determined using a Randall & Selitto apparatus exerting a force that increases at constant rate (32 g/s). The stimulus at which rats withdrawn the paw was evaluated before treatment (First day basal) and at the end of the treatment as following: before last treatment (pre-dose), and after last treatment (15, 30, 45, 60 min, 24, 48 and 72 h).
Results represent the mean of mechanical thresholds expressed as grams. To avoid any possible damage to the animal paw the maximum applied force was fixed at 240 g.

[4] = MIA rats, 14 days b.i.d. p.o. (NT-11624 150 mg/kg, tramadol 40 mg/kg)
[5] = MIA rats, single p.o. administration on saline b.i.d. (NT-11624 150 mg/kg, tramadol 40 mg/kg)

Cc1ccc(N2C(=O)CN3C(=O)CCC32)cc1 (stereo not shown) [NT-13317, 1-p-tolyl-tetrahydropyrrolo[1,2a]imidazole-2,5-dione]
Paw pressure, pre-test before all treatments ([1]; CCI group): 60.7 ± 2.7 g
Paw pressure, 5 day 30 min ([1]; CCI): 41.6 ± 4.2 g
Paw pressure, 10 day 30 min ([1]; CCI): 51.9 ± 5.2 g
Paw pressure, 14 day 30 min ([1]; CCI): 53.4 ± 5.5 g
Paw pressure, 14 day 4 h ([1]; CCI): 52.9 ± 5.2 g
Paw pressure, 14 day 8 h ([1]; CCI): 51.6 ± 4.4 g
Paw pressure, 15 day 24 h ([1]; CCI): 47.8 ± 4.7 g
Paw pressure, 18 day 3 days ([1]; CCI): 43.6 ± 5.1 g
Paw pressure, pre-test before all treatments ([1]; SHAM group): 62.3 ± 3.5 g
Paw pressure, 5 day 30 min ([1]; SHAM): 57.7 ± 4.3 g
Paw pressure, 10 day 30 min ([1]; SHAM): 55.8 ± 5.0 g
Paw pressure, 14 day 30 min ([1]; SHAM): 59.2 ± 3.9 g
Paw pressure, 14 day 4 h ([1]; SHAM): 57.2 ± 4.4 g
Paw pressure, 14 day 8 h ([1]; SHAM): 63.2 ± 6.0 g
Paw pressure, 15 day 24 h ([1]; SHAM): 61.6 ± 5.2 g
Paw pressure, 18 day 3 days ([1]; SHAM): 60.7 ± 6.2 g
Activity relative to gabapentin ([1]; i.c.v. single administration): ten times more active than gabapentin
Effect on paw pressure test after the last administration (in words) ([1]; p.o. 100 mg/kg once a day for 14 days from the day of sciatic nerve ligation): significant effect on paw pressure test up to 24 hr
Dose-response experiment, 100 mg/kg ([2]; 100 mg/kg p.o.): confirmed the results of the first experiment
Effect 4 h after administration at the end of the third week ([2]; 100 mg/kg p.o.): retained maximal efficacy; also recorded: still a beneficial effect
Effect 8 hr after administration at the end of the third week ([2]; 100 mg/kg p.o.): not any more significant
Reduction of mechanical hyperalgesia over three weeks of treatment (in words) ([2]; 100 mg/kg p.o. once daily, 5 days/week for 3 weeks): statistically significant reduction of mechanical hyperalgesia; also recorded: maximal at the end of week 3
Dose-response experiment, lower doses ([2]; 10 and 30 mg/kg p.o.): inactive
Paw pressure, pre-test before all treatments ([2]; oxaliplatin i.p. group): 58.9 ± 3.7 g
Paw pressure, 1a week - 30 min ([2]; oxaliplatin i.p.): 68.7 ± 5.2 g
Paw pressure, 2a week - 30 min ([2]; oxaliplatin i.p.): 74.3 ± 6.1 g
Paw pressure, 3a week - 30 min ([2]; oxaliplatin i.p.): 79.2 ± 6.3 g
Paw pressure, 3a week - 4 h ([2]; oxaliplatin i.p.): 74.3 ± 4.3 g
Paw pressure, 3a week - 8 h ([2]; oxaliplatin i.p.): 53.5 ± 6.3 g
Paw pressure, 3a week - 24 h ([2]; oxaliplatin i.p.): 40.6 ± 5.0 g
Paw pressure, pre-test before all treatments ([2]; vehicle i.p. (no oxaliplatin) group): 60.6 ± 3.9 g
Paw pressure, 1a week - 30 min ([2]; vehicle i.p. (no oxaliplatin)): 63.0 ± 4.3 g
Paw pressure, 2a week - 30 min ([2]; vehicle i.p. (no oxaliplatin)): 66.1 ± 4.5 g
Paw pressure, 3a week - 30 min ([2]; vehicle i.p. (no oxaliplatin)): 74.8 ± 5.4 g
Paw pressure, 3a week - 4 h ([2]; vehicle i.p. (no oxaliplatin)): 73.8 ± 4.4 g
Paw pressure, 3a week - 8 h ([2]; vehicle i.p. (no oxaliplatin)): 68.5 ± 3.7 g
Paw pressure, 3a week - 24 h ([2]; vehicle i.p. (no oxaliplatin)): 69.9 ± 4.6 g

COc1cccc(C2(O)CCCCC2CN(C)C)c1 (stereo not shown) [TRAMADOL, tramadol, reference compound]
Mechanical threshold, after last treatment 15 min [3, 4]: 38.8 ± 2.2 g
Mechanical threshold, after last treatment 30 min [3, 4]: 36.4 ± 2.9 g
Mechanical threshold, after last treatment 45 min [3, 4]: 32.8 ± 3.4 g
Mechanical threshold, before treatment, first day basal ([3]; MIA rats, groups later treated 14 days b.i.d. p.o. (NT-11624 150 mg/kg, tramadol 40 mg/kg)): 59.2 ± 3.1 g
Mechanical threshold, before treatment, first day basal ([3]; MIA rats, single administration groups (saline 14 days b.i.d. first)): 62.8 ± 3.0 g
Mechanical threshold, before last treatment, pre-dose ([3]; MIA rats, single administration on saline b.i.d., before the single p.o. dose (NT-11624 150 mg/kg, tramadol 40 mg/kg)): 25.5 ± 3.8 g
Mechanical threshold, after last treatment 15 min [3, 5]: 39.2 ± 4.1 g
Mechanical threshold, after last treatment 30 min [3, 5]: 43.4 ± 3.6 g
Mechanical threshold, after last treatment 45 min [3, 5]: 36.2 ± 3.4 g
Mechanical threshold, after last treatment 60 min ([3]; MIA rats, single p.o. administration on saline b.i.d., tramadol 40 mg/kg): 27.2 ± 3.4 g
Effect of a single oral dose on mechanical threshold (in words) ([3]; single oral dose after saline b.i.d. for 14 days (NT-11624 150 mg/kg, tramadol 40 mg/kg)): significant anti-hyperalgesic effect from 15 to 60 min
Antihyperalgesic activity after the last treatment (in words) ([3]; treatment for 14 days b.i.d. p.o. (NT-11624 150 mg/kg, tramadol 40 mg/kg)): only a weak antihyperalgesic activity 15 and 30 min after the last treatment
